From patent publication US8192962B2, “Processes for detecting toxic substances” (Daikin Industries, Ltd., priority 2001, dated 2012)

Test system: DNA repair protein genes
Experiment: DNA chip mRNA expression in yeast, DNA repair protein genes (Table 3)
Assay type: cell-based, Saccharomyces cerevisiae S288C
Details: incubated two hours, concentrations as in the 1st table
Method in brief: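 First, S288C yeast grown in YPD at 25° C. are dosed in log phase with one toxicant (growth-inhibiting, not lethal) for 2 h. Next, total RNA is extracted and poly(A) mRNA isolated and reverse-transcribed with Cy3/Cy5-dUTP. Finally, whole-genome chip fluorescence is read relative to unexposed cells.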

## manganese ethylenebis(dithiocarbamate) [(8)]
Yeast gene YAL015C
  The level of expressed mRNA in the presence of chemical substance/The level of expressed mRNA in the absence of chemical substance: 1.1
Yeast gene YAR007C
  The level of expressed mRNA in the presence of chemical substance/The level of expressed mRNA in the absence of chemical substance: 1.1
Yeast gene YBL019W
  The level of expressed mRNA in the presence of chemical substance/The level of expressed mRNA in the absence of chemical substance: 1.2
Yeast gene YBR073W
  The level of expressed mRNA in the presence of chemical substance/The level of expressed mRNA in the absence of chemical substance: 1.1
Yeast gene YBR272C
  The level of expressed mRNA in the presence of chemical substance/The level of expressed mRNA in the absence of chemical substance: 1.1
Yeast gene YCR014C
  The level of expressed mRNA in the presence of chemical substance/The level of expressed mRNA in the absence of chemical substance: 1.0
Yeast gene YDL017W
  The level of expressed mRNA in the presence of chemical substance/The level of expressed mRNA in the absence of chemical substance: 1.2
Yeast gene YDL059C
  The level of expressed mRNA in the presence of chemical substance/The level of expressed mRNA in the absence of chemical substance: 1.2
Yeast gene YDL200C
  The level of expressed mRNA in the presence of chemical substance/The level of expressed mRNA in the absence of chemical substance: 1.5
Yeast gene YDR054C
  The level of expressed mRNA in the presence of chemical substance/The level of expressed mRNA in the absence of chemical substance: 1.5
Yeast gene YDR369C
  The level of expressed mRNA in the presence of chemical substance/The level of expressed mRNA in the absence of chemical substance: 1.0
Yeast gene YEL019C
  The level of expressed mRNA in the presence of chemical substance/The level of expressed mRNA in the absence of chemical substance: 0.9
Yeast gene YEL037C
  The level of expressed mRNA in the presence of chemical substance/The level of expressed mRNA in the absence of chemical substance: 0.8
Yeast gene YER162C
  The level of expressed mRNA in the presence of chemical substance/The level of expressed mRNA in the absence of chemical substance: 0.9
Yeast gene YFL014W
  The level of expressed mRNA in the presence of chemical substance/The level of expressed mRNA in the absence of chemical substance: 3.4
Yeast gene YGL058W
  The level of expressed mRNA in the presence of chemical substance/The level of expressed mRNA in the absence of chemical substance: 1.3
Yeast gene YGL091C
  The level of expressed mRNA in the presence of chemical substance/The level of expressed mRNA in the absence of chemical substance: 1.8
Yeast gene YGL127C
  The level of expressed mRNA in the presence of chemical substance/The level of expressed mRNA in the absence of chemical substance: 0.9
Yeast gene YGL163C
  The level of expressed mRNA in the presence of chemical substance/The level of expressed mRNA in the absence of chemical substance: 1.4
Yeast gene YGL249W
  The level of expressed mRNA in the presence of chemical substance/The level of expressed mRNA in the absence of chemical substance: 0.9
Yeast gene YGR180C
  The level of expressed mRNA in the presence of chemical substance/The level of expressed mRNA in the absence of chemical substance: 1.0
Yeast gene YGR231C
  The level of expressed mRNA in the presence of chemical substance/The level of expressed mRNA in the absence of chemical substance: 1.1
Yeast gene YGR258C
  The level of expressed mRNA in the presence of chemical substance/The level of expressed mRNA in the absence of chemical substance: 0.8
Yeast gene YHR164C
  The level of expressed mRNA in the presence of chemical substance/The level of expressed mRNA in the absence of chemical substance: 1.1
Yeast gene YIL036W
  The level of expressed mRNA in the presence of chemical substance/The level of expressed mRNA in the absence of chemical substance: 1.1
Yeast gene YIL072W
  The level of expressed mRNA in the presence of chemical substance/The level of expressed mRNA in the absence of chemical substance: 1.4
Yeast gene YIL143C
  The level of expressed mRNA in the presence of chemical substance/The level of expressed mRNA in the absence of chemical substance: 0.9
Yeast gene YIL153W
  The level of expressed mRNA in the presence of chemical substance/The level of expressed mRNA in the absence of chemical substance: 0.5
Yeast gene YIR002C
  The level of expressed mRNA in the presence of chemical substance/The level of expressed mRNA in the absence of chemical substance: 1.2
Yeast gene YJL026W
  The level of expressed mRNA in the presence of chemical substance/The level of expressed mRNA in the absence of chemical substance: 1.2
Yeast gene YJR046W
  The level of expressed mRNA in the presence of chemical substance/The level of expressed mRNA in the absence of chemical substance: 0.9
Yeast gene YJR052W
  The level of expressed mRNA in the presence of chemical substance/The level of expressed mRNA in the absence of chemical substance: 1.7
Yeast gene YKL145W
  The level of expressed mRNA in the presence of chemical substance/The level of expressed mRNA in the absence of chemical substance: 1.5
Yeast gene YLR103C
  The level of expressed mRNA in the presence of chemical substance/The level of expressed mRNA in the absence of chemical substance: 1.4
Yeast gene YLR233C
  The level of expressed mRNA in the presence of chemical substance/The level of expressed mRNA in the absence of chemical substance: 1.1
Yeast gene YLR288C
  The level of expressed mRNA in the presence of chemical substance/The level of expressed mRNA in the absence of chemical substance: 1.5
Yeast gene YML032C
  The level of expressed mRNA in the presence of chemical substance/The level of expressed mRNA in the absence of chemical substance: 0.9
Yeast gene YML058W
  The level of expressed mRNA in the presence of chemical substance/The level of expressed mRNA in the absence of chemical substance: 0.7
Yeast gene YMR035W
  The level of expressed mRNA in the presence of chemical substance/The level of expressed mRNA in the absence of chemical substance: 1.4
Yeast gene YMR072W
  The level of expressed mRNA in the presence of chemical substance/The level of expressed mRNA in the absence of chemical substance: 1.0
Yeast gene YMR096W
  The level of expressed mRNA in the presence of chemical substance/The level of expressed mRNA in the absence of chemical substance: 2.0
Yeast gene YMR284W
  The level of expressed mRNA in the presence of chemical substance/The level of expressed mRNA in the absence of chemical substance: 1.1
Yeast gene YNL213C
  The level of expressed mRNA in the presence of chemical substance/The level of expressed mRNA in the absence of chemical substance: 1.8
Yeast gene YNL250W
  The level of expressed mRNA in the presence of chemical substance/The level of expressed mRNA in the absence of chemical substance: 1.3
Yeast gene YNL261W
  The level of expressed mRNA in the presence of chemical substance/The level of expressed mRNA in the absence of chemical substance: 1.1
Yeast gene YNL312W
  The level of expressed mRNA in the presence of chemical substance/The level of expressed mRNA in the absence of chemical substance: 1.2
Yeast gene YOL043C
  The level of expressed mRNA in the presence of chemical substance/The level of expressed mRNA in the absence of chemical substance: 0.9
Yeast gene YOR005C
  The level of expressed mRNA in the presence of chemical substance/The level of expressed mRNA in the absence of chemical substance: 1.3
Yeast gene YOR386W
  The level of expressed mRNA in the presence of chemical substance/The level of expressed mRNA in the absence of chemical substance: 1.0
Yeast gene YPL022W
  The level of expressed mRNA in the presence of chemical substance/The level of expressed mRNA in the absence of chemical substance: 1.0
Yeast gene YPL164C
  The level of expressed mRNA in the presence of chemical substance/The level of expressed mRNA in the absence of chemical substance: 1.0
Yeast gene YPL194W
  The level of expressed mRNA in the presence of chemical substance/The level of expressed mRNA in the absence of chemical substance: 1.3
Yeast gene YPR025C
  The level of expressed mRNA in the presence of chemical substance/The level of expressed mRNA in the absence of chemical substance: 1.3
